Reference: ChEMBL document CHEMBL1128657, “Synthesis and in vitro biological evaluation of new triphenylethylene platinum (II) complexes” (Bioorg Med Chem Lett, 1995)

Assays:
MCF7 = experiment: In vitro inhibition of estrogen receptor positive MCF-7 human mammary carcinoma cell proliferation; type: functional, cell-based
MDA-MB-231 = experiment: In vitro inhibition of estrogen receptor negative […] human mammary carcinoma cell proliferation; type: functional, cell-based

| IC50 (MCF7; Homo sapiens, MCF7) [µM] | IC50 (MDA-MB-231; Homo sapiens, MDA-MB-231) [µM] | IC50 (MCF7; mcf7) [µM] | IC50 (MDA-MB-231; mda-mb-231) [µM] | Molecule |
| --- | --- | --- | --- | --- |
| 14 | 2.3 |  |  | COc1ccc(C(=C(CCCCCCCCCCCNCCN)c2ccccc2)c2ccc(OC)cc2)cc1 |
| 17 | 28 |  |  | CC/C(=C(\c1ccccc1)c1ccc(OCCN(C)C)cc1)c1ccccc1 [TAMOXIFEN] |
|  |  | 3 | 3.4 | CISPLATIN |
